Results on eleven compounds are retold here after patent US20250059171A1 (Hoffmann-La Roche Inc., priority 2021, published 2025).

The target in one test is SARS-CoV-2 3CLpro (Severe acute respiratory syndrome coronavirus 2, UniProt P0DTD1). As to the kind of experiment: biochemical.
Another test deals with HCoV-229E 3CLpro (Human coronavirus 229E, UniProt P0C6X1). As to the kind of experiment: HCoV-229E 3CLpro inhibition assay (FRET). It counts as biochemical.
For the next test, the target named is MERS-CoV 3CLpro (Middle East respiratory syndrome-related coronavirus, UniProt K9N7C7). Kind of test: biochemical.
Chain of MERS-CoV 3CLpro (K9N7C7 3248-3553): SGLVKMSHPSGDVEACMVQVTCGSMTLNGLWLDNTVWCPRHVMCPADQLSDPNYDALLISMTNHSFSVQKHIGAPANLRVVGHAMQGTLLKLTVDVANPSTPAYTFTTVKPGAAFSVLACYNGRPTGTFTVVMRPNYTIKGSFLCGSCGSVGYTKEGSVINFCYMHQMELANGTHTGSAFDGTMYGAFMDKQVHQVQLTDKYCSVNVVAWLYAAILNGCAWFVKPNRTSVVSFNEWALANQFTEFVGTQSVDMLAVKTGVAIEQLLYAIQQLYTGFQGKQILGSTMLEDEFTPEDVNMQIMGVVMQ
For another test, the target named is SARS-CoV 3CLpro (Severe acute respiratory syndrome coronavirus, UniProt P0C6X7). Kind of test: biochemical.

Chain of HCoV-229E 3CLpro (P0C6X1 2966-3267): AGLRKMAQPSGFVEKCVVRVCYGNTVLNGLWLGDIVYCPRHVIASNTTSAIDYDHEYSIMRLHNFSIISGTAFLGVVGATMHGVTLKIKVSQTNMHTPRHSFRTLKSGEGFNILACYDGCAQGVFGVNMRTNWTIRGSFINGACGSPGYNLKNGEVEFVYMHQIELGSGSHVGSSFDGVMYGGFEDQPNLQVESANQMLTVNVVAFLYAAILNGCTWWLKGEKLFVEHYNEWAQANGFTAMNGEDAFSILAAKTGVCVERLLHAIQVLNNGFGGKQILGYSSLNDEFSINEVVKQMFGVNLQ

The term IC50 denotes the concentration at which inhibition is half-maximal. A low value points to greater potency in that assay. As to `CC[C@@H](C)[C@H](NC(=O)C(F)(F)F)C(=O)N1C[C@H]2[C@@H]([C@H]1C(=O)NN(C[C@@H]1CCNC1=O)C(=O)[C@H](F)Cl)C2(C)C` [Example 64, N-[(1S,2R)-1-[(1R,2S,5S)-2-[[[(2R)-2-chloro-2-fluoro-acetyl]-[[(3S)-2-oxopyrrolidin-3-yl]methyl]amino]carbamoyl]-6,6-dimethyl-3-azabicyclo[3.1.0]hexane-3-carbonyl]-2-methyl-butyl]-2,2,2-trifluoro-acetamide], the IC50 against SARS-CoV-2 3CLpro came out at 10 nM; on HCoV-229E 3CLpro it was 20 nM; on MERS-CoV 3CLpro, 71 nM; on SARS-CoV 3CLpro, 12 nM.

`CC(C)(C)[C@H](NC(=O)[C@@H]1CC1(F)F)C(=O)N1C[C@@H]2CCC[C@@H]2[C@H]1C(=O)NN(C[C@@H]1CCNC1=O)C(=O)[C@@H](F)Cl` [Example 101, (1S)—N-[(1S)-1-[(3S,3aS,6aR)-3-[[[(2S)-2-chloro-2-fluoro-acetyl]-[[(3S)-2-oxopyrrolidin-3-yl]methyl]amino]carbamoyl]-3,3a,4,5,6,6a-hexahydro-1H-cyclopenta[c]pyrrole-2-carbonyl]-2,2-dimethyl-propyl]-2,2-difluoro-cyclopropanecarboxamide]: the IC50 against SARS-CoV-2 3CLpro is 9 nM; on HCoV-229E 3CLpro, 40 nM; at MERS-CoV 3CLpro, 94 nM; against SARS-CoV 3CLpro it was 13 nM.

Take `CC(C)(C)[C@H](NC(=O)C1(F)CC1)C(=O)N1C[C@H]2[C@@H]([C@H]1C(=O)NN(C[C@@H]1CCNC1=O)C(=O)[C@@H](F)Cl)C2(C)C` [Example 94, N-[(1S)-1-[(1R,2S,5S)-2-[[[(2S)-2-chloro-2-fluoro-acetyl]-[[(3S)-2-oxopyrrolidin-3-yl]methyl]amino]carbamoyl]-6,6-dimethyl-3-azabicyclo[3.1.0]hexane-3-carbonyl]-2,2-dimethyl-propyl]-1-fluoro-cyclopropanecarboxamide]: the IC50 at SARS-CoV-2 3CLpro was determined as 21 nM; at HCoV-229E 3CLpro it was 59 nM; against MERS-CoV 3CLpro, 136 nM; against SARS-CoV 3CLpro, 29 nM.

In the case of `CC[C@H](C)[C@H](NC(=O)[C@@H](F)Cl)C(=O)N1C[C@H]2[C@@H]([C@H]1C(=O)NN(C[C@@H]1CCNC1=O)C(=O)[C@@H](F)Cl)C2(C)C` [Example 186, (2S)-2-chloro-N-[(1S,2S)-1-[(1R,2S,5S)-2-[[[(2S)-2-chloro-2-fluoro-acetyl]-[[(3S)-2-oxopyrrolidin-3-yl]methyl]amino]carbamoyl]-6,6-dimethyl-3-azabicyclo[3.1.0]hexane-3-carbonyl]-2-methyl-butyl]-2-fluoro-acetamide], the IC50 turned out to be 13 nM against SARS-CoV-2 3CLpro, 49 nM on HCoV-229E 3CLpro, 69 nM at MERS-CoV 3CLpro and 23 nM on SARS-CoV 3CLpro.

As for `CC(C)(C)[C@H](NC(=O)C1(F)CCC1)C(=O)N1C[C@@H]2CCC[C@@H]2[C@H]1C(=O)NN(C[C@@H]1CCNC1=O)C(=O)[C@H](F)Cl` [Example 97, N-[(1S)-1-[(3S,3aS,6aR)-3-[[[(2R)-2-chloro-2-fluoro-acetyl]-[[(3S)-2-oxopyrrolidin-3-yl]methyl]amino]carbamoyl]-3,3a,4,5,6,6a-hexahydro-1H-cyclopenta[c]pyrrole-2-carbonyl]-2,2-dimethyl-propyl]-1-fluoro-cyclobutanecarboxamide], the IC50 came out at 11 nM at SARS-CoV-2 3CLpro, 74 nM against HCoV-229E 3CLpro, 208 nM against MERS-CoV 3CLpro and 13 nM against SARS-CoV 3CLpro.

Consider `CC[C@H](C)[C@H](NC(=O)C(C)(C)C)C(=O)N1C[C@@H]2CCC[C@@H]2[C@H]1C(=O)NN(C[C@@H]1CCNC1=O)C(=O)[C@H](F)Cl` [Example 44, N-[(1S,2S)-1-[(3S,3aS,6aR)-3-[[[(2R)-2-chloro-2-fluoro-acetyl]-[[(3S)-2-oxopyrrolidin-3-yl]methyl]amino]carbamoyl]-3,3a,4,5,6,6a-hexahydro-1H-cyclopenta[c]pyrrole-2-carbonyl]-2-methyl-butyl]-2,2-dimethyl-propanamide], for which the IC50 on SARS-CoV-2 3CLpro worked out at 8 nM; against HCoV-229E 3CLpro it was 23 nM; against MERS-CoV 3CLpro, 55 nM; at SARS-CoV 3CLpro, 11 nM.

On to `CC[C@@H](C)[C@H](NC(=O)[C@H](C)F)C(=O)N1C[C@H]2[C@@H]([C@H]1C(=O)NN(C[C@@H]1CCNC1=O)C(=O)[C@@H](F)Cl)C2(C)C` [Example 122, (2S)—N-[(1S,2R)-1-[(1R,2S,5S)-2-[[[(2S)-2-chloro-2-fluoro-acetyl]-[[(3S)-2-oxopyrrolidin-3-yl]methyl]amino]carbamoyl]-6,6-dimethyl-3-azabicyclo[3.1.0]hexane-3-carbonyl]-2-methyl-butyl]-2-fluoro-propanamide], for which the IC50 worked out at 26 nM against SARS-CoV-2 3CLpro, 46 nM on HCoV-229E 3CLpro, 146 nM against MERS-CoV 3CLpro and 36 nM at SARS-CoV 3CLpro.

With `CCC(CC)[C@H](NC(=O)C(F)F)C(=O)N1CC(C)(C)C[C@H]1C(=O)NN(C[C@@H]1CCNC1=O)C(=O)[C@H](F)Cl` [Example 139, N-[(1S)-1-[(2S)-2-[[[(2R)-2-chloro-2-fluoro-acetyl]-[[(3S)-2-oxopyrrolidin-3-yl]methyl]amino]carbamoyl]-4,4-dimethyl-pyrrolidine-1-carbonyl]-2-ethyl-butyl]-2,2-difluoro-acetamide], the IC50 against SARS-CoV-2 3CLpro was found to be 14 nM; on HCoV-229E 3CLpro, 35 nM; against MERS-CoV 3CLpro, 139 nM; on SARS-CoV 3CLpro, 18 nM.

In the case of `CC1(C)[C@@H]2[C@@H](C(=O)NN(C[C@@H]3CCNC3=O)C(=O)[C@H](F)Cl)N(C(=O)c3cc(C(F)(F)F)cc(C(F)(F)F)c3)C[C@@H]21` [Example 177, (1R,2S,5S)-3-[3,5-bis(trifluoromethyl)benzoyl]-N′-[(2R)-2-chloro-2-fluoro-acetyl]-6,6-dimethyl-N′—[[(3S)-2-oxopyrrolidin-3-yl]methyl]-3-azabicyclo[3.1.0]hexane-2-carbohydrazide], the IC50 on SARS-CoV-2 3CLpro was 147 nM; against HCoV-229E 3CLpro, 138 nM; against MERS-CoV 3CLpro it was 278 nM; against SARS-CoV 3CLpro, 232 nM.

As for `CCC(CC)[C@H](NC(=O)C1CC1)C(=O)N1C[C@H]2[C@@H]([C@H]1C(=O)NN(C[C@@H]1CCCNC1=O)C(=O)[C@H](F)Cl)C2(C)C` [Example 172, N-[(1S)-1-[(1R,2S,5S)-2-[[[(2R)-2-chloro-2-fluoro-acetyl]-[[(3S)-2-oxo-3-piperidyl]methyl]amino]carbamoyl]-6,6-dimethyl-3-azabicyclo[3.1.0]hexane-3-carbonyl]-2-ethyl-butyl]cyclopropanecarboxamide], the IC50 against SARS-CoV-2 3CLpro amounted to 17 nM; at HCoV-229E 3CLpro, 71 nM; on MERS-CoV 3CLpro, 187 nM; against SARS-CoV 3CLpro it was 26 nM.

As for `CC(C)(C)[C@H](NC(=O)[C@H]1CC1(F)F)C(=O)N1C[C@H]2[C@@H]([C@H]1C(=O)NN(C[C@@H]1CCNC1=O)C(=O)[C@@H](F)Cl)C2(C)C` [Example 96, (1R)—N-[(1S)-1-[(1R,2S,5S)-2-[[[(2S)-2-chloro-2-fluoro-acetyl]-[[(3S)-2-oxopyrrolidin-3-yl]methyl]amino]carbamoyl]-6,6-dimethyl-3-azabicyclo[3.1.0]hexane-3-carbonyl]-2,2-dimethyl-propyl]-2,2-difluoro-cyclopropanecarboxamide], the IC50 at SARS-CoV-2 3CLpro was 11 nM; against HCoV-229E 3CLpro, 25 nM; against MERS-CoV 3CLpro, 63 nM; against SARS-CoV 3CLpro, 14 nM.
